ChEMBL document CHEMBL6103636, “Development of Potent SHP2 Allosteric Inhibitors: Design, Synthesis, and Evaluation with Antitumor Effects” (J Med Chem, 2025)

What was measured:
[1] = target: T1, Tyrosine-protein phosphatase non-receptor type 11 (Homo sapiens, UniProt Q06124); assay: Inhibition of H2N-LN(pY)IDLDLV-(dPEG80) LST(pY)-ASINFQK-amide-activated SHP2 (unknown origin) using DiFMUP as substrate incubated for 30 mins by fluorescence based assay
T1 sequence (Q06124 whole entry): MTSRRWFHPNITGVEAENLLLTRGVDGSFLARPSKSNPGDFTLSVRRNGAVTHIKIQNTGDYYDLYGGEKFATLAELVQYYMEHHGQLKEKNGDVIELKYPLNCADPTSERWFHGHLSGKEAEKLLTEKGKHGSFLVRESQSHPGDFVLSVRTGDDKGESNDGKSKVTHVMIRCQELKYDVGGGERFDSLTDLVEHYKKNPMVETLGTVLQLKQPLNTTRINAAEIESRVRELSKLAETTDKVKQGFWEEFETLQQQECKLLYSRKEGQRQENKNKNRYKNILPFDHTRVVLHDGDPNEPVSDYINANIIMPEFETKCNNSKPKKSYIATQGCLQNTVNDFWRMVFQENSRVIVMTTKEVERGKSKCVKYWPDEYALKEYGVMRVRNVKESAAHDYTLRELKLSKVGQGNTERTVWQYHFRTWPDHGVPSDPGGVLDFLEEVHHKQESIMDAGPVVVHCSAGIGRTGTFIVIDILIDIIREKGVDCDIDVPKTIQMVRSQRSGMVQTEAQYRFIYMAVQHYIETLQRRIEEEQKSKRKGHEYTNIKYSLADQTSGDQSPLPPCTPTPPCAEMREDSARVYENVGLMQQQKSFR

[2] = Inhibition of ERK phosphorylation in human KYSE520 cells incubated for 2 hrs by fluorescence based assay; type: cell-based; details: KYSE-520, 2 h
KYSE-520 cell line = assay: cells; details: Homo sapiens, KYSE-520, 72 h
Description: Antiproliferative activity against human KYSE520 cells measured after 72 hrs by Cell Titer-Glo assay

[3] = Toxicity in NU/NU mouse implanted with human KYSE520 cells assessed as abnormalities in liver at 25 mg/kg, po treated for 20 days by H and E staining based analysis; type: organism-based; details: in vivo, 480 h, time 20 day
[4] = Toxicity in NU/NU mouse implanted with human KYSE520 cells assessed as abnormalities in heart at 25 mg/kg, po treated for 20 days by H and E staining based analysis; type: organism-based; details: in vivo, 480 h, time 20 day
[5] = Toxicity in NU/NU mouse implanted with human KYSE520 cells assessed as abnormalities in lung at 25 mg/kg, po treated for 20 days by H and E staining based analysis; type: organism-based; details: in vivo, 480 h, time 20 day
[6] = Toxicity in NU/NU mouse implanted with human KYSE520 cells assessed as abnormalities in animal at 25 mg/kg, po treated for 20 days; type: organism-based; details: in vivo, 480 h, time 20 day
[7] = Toxicity in NU/NU mouse implanted with human KYSE520 cells assessed as abnormalities in kidney at 25 mg/kg, po treated for 20 days by H and E staining based analysis; type: organism-based; details: in vivo, 480 h, time 20 day
[8] = Toxicity in NU/NU mouse implanted with human KYSE520 cells assessed as drug tolerance at 25 mg/kg, po treated for 20 days; type: organism-based; details: in vivo, 480 h, time 20 day
[9] = Toxicity in NU/NU mouse implanted with human KYSE520 cells assessed as body weight loss at 25 mg/kg, po treated for 20 days; type: organism-based; details: in vivo, 480 h, time 20 day
[10] = Toxicity in NU/NU mouse implanted with human KYSE520 cells assessed as abnormalities in spleen at 25 mg/kg, po treated for 20 days by H and E staining based analysis; type: organism-based; details: in vivo, 480 h, time 20 day

Row | Structure (SMILES) | IC50 [1] | IC50 [2] | IC50 (KYSE-520 cell line) | also measured
1 | NC1COCC12CCN(c1nc3ccc(Sc4ccnc5c4OC[C@@H]4CCCN54)nc3s1)CC2 (some centres undefined) | 434 nM |  |  | 
2 | NC1COCC12CCN(c1nc3ccc(Sc4cccc(NC(=O)c5c(O)nc6ccccn6c5=O)c4Cl)nc3s1)CC2 (centres undefined) | 68.1 nM | 175 nM | 1200 nM | 
3 | Nc1cccc(Sc2ccc3nc(N4CCCC(N)CC4)sc3n2)c1Cl (centres undefined) | 372 nM |  |  | 
4 | NC1COCC12CCN(c1ncc(Sc3ccnc4c3OC[C@@H]3CCCN43)c3nncn13)CC2 (some centres undefined) | 78.9 nM |  |  | 
5 | Nc1nccc(Sc2ccc3nc(N4CC5CC(C4)N5)sc3n2)c1Cl | 623 nM |  |  | 
6 | NC1COCC12CCN(c1nc3ccc(Sc4ccnc5c4OC[C@@H]4CCCN54)cc3s1)CC2 (some centres undefined) | 837 nM |  |  | 
7 | CCC1C(O)=C(C(=O)Nc2cccc(Sc3ccc4nc(N5CCC(C)(N)CC5)sc4n3)c2Cl)C(=O)N1C (centres undefined) | 82.7 nM | > 10000 nM | > 10000 nM | 
8 | NC1COCC12CCN(c1nc3ccc(Sc4cccc(NC(=O)C5=C(O)CN(c6ccccc6)C5=O)c4Cl)nc3s1)CC2 (centres undefined) | 70.2 nM | 2150 nM | 9250 nM | 
9 | C[C@@H]1OCC2(CCN(c3cnc(Sc4ccnc(N)c4Cl)c(N)n3)CC2)[C@@H]1N [BATOPROTAFIB] |  | 49 nM | 241 nM | Activity [3]: Non-toxic; Activity [4]: Non-toxic; Activity [5]: Non-toxic; Activity [6]: Non-toxic; Activity [7]: Non-toxic; Activity [8]: Non-toxic; Activity [9]: Non-toxic; Activity [10]: Non-toxic
